# Assay results taken from patent US20260144799A1, “COMPOSITION COMPRISING A FIRST RAS INHIBITOR, SECOND RAS INHIBITOR AND A SHP2 INHIBITOR FOR USE IN THE TREATMENT OF CANCER” (Revolution Medicines, Inc., priority 2022, published 2026).
# How the values were obtained:
# [1] = tested on: eLL2 KRAS^WT/G12C NRAS^−/− A2 model; experiment: Tumor cell growth in vivo, murine syngeneic eLL2 KRAS^WT/G12C NRAS^−/− A2 model; set-up: species or system C57BL/6J mice; settings: on treatment; RMC-4550 30 mg/kg po qd
# Protocol: Methods: Effects of Compound A and combination therapy with Compound B and/or RMC-4550 (a SHP2 inhibitor) on tumor cell growth in vivo were evaluated in the murine syngeneic eLL2 KRAS^WT/G12C NRAS^−/− A2 model using female C57BL/6J mice (6-8 weeks old). Mice were implanted with tumor cells (3×10^6 cells/mouse) in DMEM medium without supplements subcutaneously in the upper right flank. Once tumors reached an average size of ˜130 mm^3, mice were randomized to treatment groups to start the administration of test articles or vehicle. Compound A was administered by oral gavage once daily (po qd) at 200 mg/kg, compound B was administered by oral gavage once daily (po qd) at 25 mg/kg and RMC-4550 was administered by oral gavage once daily (po qd) at 30 mg/kg. In the dual combinations the compounds were administered at the same dose as the monotherapies qd. In the triple combination Compound A was dosed at 200 mg/kg po qd, Compound B was dosed at 50 mg/kg po q2d and RMC-4550 was dosed at 20 mg/kg po qd. The administration of Compound A, Compound B and RMC-4550 was ceased after 60 days of treatment in the monotherapy and combination groups. Body weight and tumor volume (using calipers) was measured twice weekly until study endpoints.
# [2] = tested on: eLL2 KRAS^WT/G12C NRAS^−/− A2 tumors; experiment: Tumor immune profile by flow cytometry in response to therapy; format: in vivo, murine; settings: 4 days of treatment, tumors collected 24 hours post last dose, 3 animals/group
# Protocol: Methods: The tumor immune profile of the murine syngeneic eLL2 KRAS^WT/G12C NRAS^−/− A2 tumors (3 animals/group) was evaluated in response to therapy by flow cytometry. The mono- and combination therapies were administered for 4 days at the concentrations described in FIG. 1 A-C. 24 hours post last dose the tumors were collected, tumor tissue was minced, processed with the Dri Tumor & Tissue Dissociation Reagent from BD Biosciences, and homogenized with the gentleMACS™ Dissociator. The cell suspension was incubated at 4° C. for 30 minutes with Mouse BD Fc Block (Clone 2.4G2 from BD Pharmingen), 10 minutes with Blue Dead Cell Stain Kit (from Invitrogen) and 30 min in cell staining buffer. […]
compound,measurement,setting,value
Cc1nc(N2CCC3(CC2)CO[C@@H](C)[C@H]3N)c(CO)nc1-c1cccc(Cl)c1Cl [RMC-4550],effect on tumor growth (in words),[1],tumor growth inhibition
same,Ly6C+ myeloid derived suppressor cells in tumor,[2],only a slight decrease
